Results reported in PubChem BioAssay AID270 (DTP/NCI, 2004).
“And” between values parts separate entries of the source, which are not always exact repeats. Identical values can stand only once. Records with an inconclusive call do not appear.

Test system: BDF1 mice, s.c. Lewis lung carcinoma, T/C %
Experiment: NCI In Vivo Anticancer Drug Screen. Data for tumor model Lewis Lung Carcinoma (subcutaneous) in B6D2F1 (BDF1) mice
In short: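 The value reflects a ratio in which the treated cohort's survival time or tumour size is compared against mice receiving only vehicle.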

In the case of `Oc1ccccc1/C=N/NC(=S)NC1CC2C=CC1C2` (stereo unspecified), the T/C (endpoint: median survival time, dose: 12.5 mg/kg/injection, schedule: Q01DX009 (ip), vehicle: olive oil, sesame oil, peanut oil, higher = longer survival) is reported as 94 % of control, the T/C (endpoint: median survival time, dose: 100.0 mg/kg/injection, schedule: Q01DX009 (ip), vehicle: olive oil, sesame oil, peanut oil, higher = longer survival) is reported as 91 % of control and the T/C (endpoint: median survival time, dose: 200.0 mg/kg/injection, schedule: Q01DX009 (ip), vehicle: olive oil, sesame oil, peanut oil, higher = longer survival) is reported as 87 % of control.
In the case of `CC(C)(C)c1ccc(CN2CCN(C(c3ccccc3)c3ccc(Cl)cc3)CC2)cc1` (stereo unspecified), the T/C (endpoint: median survival time, dose: 0.5 mg/kg/injection, schedule: Q01DX009 (ip), vehicle: saline with Tween-80, higher = longer survival) is reported as 112 % of control and the T/C (endpoint: median survival time, dose: 2.0 mg/kg/injection, schedule: Q01DX009 (ip), vehicle: saline with Tween-80, higher = longer survival) is reported as 112 % of control and 155 % of control and 233 % of control.
`NC(Cc1cc(Cl)c(O)c(Cl)c1)C(=O)O` (stereo unspecified) was tested, and the T/C (endpoint: median survival time, dose: 18.75 mg/kg/injection, schedule: Q01DX009 (ip), vehicle: saline, higher = longer survival) was 115 % of control, the T/C (endpoint: median survival time, dose: 37.5 mg/kg/injection, schedule: Q01DX009 (ip), vehicle: saline, higher = longer survival) was 117 % of control and the T/C (endpoint: median survival time, dose: 75.0 mg/kg/injection, schedule: Q01DX009 (ip), vehicle: saline, higher = longer survival) was 115 % of control.
In the case of `C[C@]12CC[C@H]3[C@@H](CC[C@]4(O)C[C@@H](O)CC[C@]34C=O)[C@@]1(O)CC[C@@H]2C1=CC(=O)OC1`, the T/C (endpoint: median survival time, dose: 3.12 mg/kg/injection, schedule: Q01DX009 (ip), vehicle: Klucel (hydroxypropylcellulose) (HPC), higher = longer survival) is reported as 87 % of control, the T/C (endpoint: median survival time, dose: 12.5 mg/kg/injection, schedule: Q01DX009 (ip), vehicle: Klucel (hydroxypropylcellulose) (HPC), higher = longer survival) is reported as 113 % of control and the T/C (endpoint: median survival time, dose: 25.0 mg/kg/injection, schedule: Q01DX009 (ip), vehicle: Klucel (hydroxypropylcellulose) (HPC), higher = longer survival) is reported as 116 % of control.
For `NC(=NCc1ccccc1)c1ccc(N=C(N)c2ccc(C(N)=Nc3ccc(C(N)=NCc4ccccc4)cc3)cc2)cc1`, the T/C (endpoint: median survival time, dose: 2.5 mg/kg/injection, schedule: Q01DX009 (ip), vehicle: saline, higher = longer survival) was 113 % of control, the T/C (endpoint: median survival time, dose: 5.0 mg/kg/injection, schedule: Q01DX009 (ip), vehicle: saline, higher = longer survival) was 107 % of control and the T/C (endpoint: median survival time, dose: 10.0 mg/kg/injection, schedule: Q01DX009 (ip), vehicle: saline, higher = longer survival) was 111 % of control.
`O=NN(CCF)C(=O)NC1CCCCC1` was tested, and the T/C (endpoint: median survival time, dose: 5.0 mg/kg/injection, schedule: Q01DX001 (ip), vehicle: Klucel (hydroxypropylcellulose) (HPC), higher = longer survival) was 101 % of control (2×) and 119 % of control, the T/C (endpoint: median survival time, dose: 5.1 mg/kg/injection, schedule: Q01DX001 (ip), vehicle: other, higher = longer survival) was 96 % of control and the T/C (endpoint: median survival time, dose: 10.0 mg/kg/injection, schedule: Q01DX001 (ip), vehicle: Klucel (hydroxypropylcellulose) (HPC), higher = longer survival) was 90 % of control and 116 % of control and 119 % of control. The T/C (endpoint: median survival time, dose: 10.2 mg/kg/injection, schedule: Q01DX001 (ip), vehicle: other, higher = longer survival) was 105 % of control, the T/C (endpoint: median survival time, dose: 20.0 mg/kg/injection, schedule: Q01DX001 (ip), vehicle: Klucel (hydroxypropylcellulose) (HPC), higher = longer survival) was 101 % of control and 109 % of control and 119 % of control and the T/C (endpoint: median survival time, dose: 20.4 mg/kg/injection, schedule: Q01DX001 (ip), vehicle: other, higher = longer survival) was 121 % of control. For the same molecule, the T/C (endpoint: median survival time, dose: 40.0 mg/kg/injection, schedule: Q01DX001 (ip), vehicle: Klucel (hydroxypropylcellulose) (HPC), higher = longer survival) was 182 % of control.
`CCCCCCCCCCCCCCCC(=O)OCC1OC(n2ccc(N)nc2=O)C(O)C1O` (stereo unspecified) was tested, and the T/C (endpoint: median tumor weight (est.), dose: 12.0 mg/kg/injection, schedule: Q01DX015 (ip), vehicle: saline with Tween-80, higher = larger tumour) was 54 % of control, the T/C (endpoint: median tumor weight (est.), dose: 18.0 mg/kg/injection, schedule: Q01DX015 (ip), vehicle: saline with Tween-80, higher = larger tumour) was 66 % of control and the T/C (endpoint: median tumor weight (est.), dose: 27.0 mg/kg/injection, schedule: Q01DX015 (ip), vehicle: saline with Tween-80, higher = larger tumour) was 59 % of control.
With `CN1c2c(nc(N)[nH]c2=O)NCC1CCNc1ccc(C(=O)NC(CCC(=O)O)C(=O)O)cc1` (stereo unspecified) the T/C (endpoint: median survival time, dose: 268.0 mg/kg/injection, schedule: Q01DX009 (ip), vehicle: saline, higher = longer survival) was 120 % of control, the T/C (endpoint: median survival time, dose: 400.0 mg/kg/injection, schedule: Q01DX009 (ip), vehicle: saline, higher = longer survival) was 116 % of control and the T/C (endpoint: median survival time, dose: 400.0 mg/kg/injection, schedule: Q04DX003 (ip), vehicle: saline, higher = longer survival) was 103 % of control. For the same molecule, the T/C (endpoint: median survival time, dose: 600.0 mg/kg/injection, schedule: Q04DX003 (ip), vehicle: saline, higher = longer survival) was 116 % of control, the T/C (endpoint: median survival time, dose: 800.0 mg/kg/injection, schedule: Q01DX001 (ip), vehicle: saline, higher = longer survival) was 98 % of control and the T/C (endpoint: median survival time, dose: 900.0 mg/kg/injection, schedule: Q04DX003 (ip), vehicle: saline, higher = longer survival) was 106 % of control. For the same molecule, the T/C (endpoint: median survival time, dose: 1200.0 mg/kg/injection, schedule: Q01DX001 (ip), vehicle: saline, higher = longer survival) was 103 % of control and the T/C (endpoint: median survival time, dose: 1800.0 mg/kg/injection, schedule: Q01DX001 (ip), vehicle: saline, higher = longer survival) was 110 % of control.
In the case of `CCC(C)n1ncc2c(N(C)C)ncnc21` (stereo unspecified), the T/C (endpoint: mean tumor weight, dose: 32.5 mg/kg/injection, schedule: Q01DX011 (ip), vehicle: carboxymethylcellulose (CMC), higher = larger tumour) is reported as 76 % of control.
In the case of `NC(=S)c1cn(C2OC(CO)C(O)C2O)c2ncnc(N)c12` (stereo unspecified), the T/C (endpoint: median survival time, dose: 0.31 mg/kg/injection, schedule: Q01DX009 (ip), vehicle: saline with Tween-80, higher = longer survival) is reported as 111 % of control, the T/C (endpoint: median survival time, dose: 0.62 mg/kg/injection, schedule: Q01DX009 (ip), vehicle: saline with Tween-80, higher = longer survival) is reported as 88 % of control and the T/C (endpoint: median survival time, dose: 2.5 mg/kg/injection, schedule: Q01DX009 (ip), vehicle: saline with Tween-80, higher = longer survival) is reported as 94 % of control and 101 % of control. For the same molecule, the T/C (endpoint: median survival time, dose: 5.0 mg/kg/injection, schedule: Q01DX009 (ip), vehicle: saline with Tween-80, higher = longer survival) was 101 % of control.
In the case of `COC1C(O)CC(OC2CC(OC3CC(O[C@@H]4C(=O)c5c(cc6cc(OC7CC(OC8CC(O)C(O)C(C)O8)C(O)C(C)O7)c(C)c(O)c6c5O)C[C@H]4[C@H](OC)C(=O)[C@@H](O)[C@@H](C)O)OC(C)C3O)OC(C)C2O)OC1C` (stereo partly specified), the T/C (endpoint: median survival time, dose: 37.5 micrograms/kg/injection, schedule: Q01DX009 (ip), vehicle: water, higher = longer survival) is reported as 110 % of control, the T/C (endpoint: median survival time, dose: 75.0 micrograms/kg/injection, schedule: Q01DX009 (ip), vehicle: water, higher = longer survival) is reported as 118 % of control and the T/C (endpoint: median survival time, dose: 150.0 micrograms/kg/injection, schedule: Q01DX009 (ip), vehicle: water, higher = longer survival) is reported as 86 % of control.
For `CNC1=C(N2CC2)C(=O)C(NC)=C(N2CC2)C1=O`, the T/C (endpoint: median survival time, dose: 0.02 mg/kg/injection, schedule: Q01DX009 (ip), vehicle: saline, higher = longer survival) was 120 % of control, the T/C (endpoint: median survival time, dose: 0.1 mg/kg/injection, schedule: Q01DX009 (ip), vehicle: saline, higher = longer survival) was 113 % of control and the T/C (endpoint: median survival time, dose: 0.2 mg/kg/injection, schedule: Q01DX009 (ip), vehicle: saline, higher = longer survival) was 105 % of control. For the same molecule, the T/C (endpoint: median survival time, dose: 0.4 mg/kg/injection, schedule: Q01DX009 (ip), vehicle: saline, higher = longer survival) was 124 % of control.
For `NC(=S)N/N=C/c1nccc2ccccc12`, the T/C (endpoint: mean tumor weight, dose: 12.5 mg/kg/injection, schedule: Q01DX011 (ip), vehicle: carboxymethylcellulose (CMC), higher = larger tumour) was 103 % of control, the T/C (endpoint: mean tumor weight, dose: 25.0 mg/kg/injection, schedule: Q01DX011 (ip), vehicle: carboxymethylcellulose (CMC), higher = larger tumour) was 48 % of control and the T/C (endpoint: mean tumor weight, dose: 26.0 mg/kg/injection, schedule: Q01DX011 (ip), vehicle: saline, higher = larger tumour) was 64 % of control. The T/C (endpoint: mean tumor weight, dose: 33.5 mg/kg/injection, schedule: Q01DX011 (ip), vehicle: carboxymethylcellulose (CMC), higher = larger tumour) was 56 % of control, the T/C (endpoint: mean tumor weight, dose: 38.0 mg/kg/injection, schedule: Q01DX011 (ip), vehicle: saline, higher = larger tumour) was 16 % of control and the T/C (endpoint: mean tumor weight, dose: 40.0 mg/kg/injection, schedule: Q01DX011 (oral), vehicle: saline, higher = larger tumour) was 42 % of control. For the same molecule, the T/C (endpoint: mean tumor weight, dose: 56.0 mg/kg/injection, schedule: Q01DX011 (ip), vehicle: saline, higher = larger tumour) was 3 % of control, the T/C (endpoint: median survival time, dose: 9.4 mg/kg/injection, schedule: Q01DX009 (ip), vehicle: saline with Tween-80, higher = longer survival) was 124 % of control and the T/C (endpoint: median survival time, dose: 18.8 mg/kg/injection, schedule: Q01DX009 (ip), vehicle: saline with Tween-80, higher = longer survival) was 98 % of control and 108 % of control. For the same molecule, the T/C (endpoint: median survival time, dose: 37.5 mg/kg/injection, schedule: Q01DX009 (ip), vehicle: saline with Tween-80, higher = longer survival) was 98 % of control.
`CCOC(C)C(/C=N/NC(N)=S)=NNC(N)=S` (stereo unspecified) was tested, and the T/C (endpoint: mean tumor weight, dose: 30.0 mg/kg/injection, schedule: Q01DX011 (ip), vehicle: saline, higher = larger tumour) was 77 % of control, the T/C (endpoint: mean tumor weight, dose: 60.0 mg/kg/injection, schedule: Q01DX011 (ip), vehicle: saline, higher = larger tumour) was 81 % of control and the T/C (endpoint: mean tumor weight, dose: 120.0 mg/kg/injection, schedule: Q01DX011 (ip), vehicle: saline, higher = larger tumour) was 66 % of control.
`O=C(O)c1c2c(nc3ccccc13)Cc1ccccc1-2` was tested, and the T/C (endpoint: median survival time, dose: 50.0 mg/kg/injection, schedule: Q01DX009 (ip), vehicle: Klucel (hydroxypropylcellulose) (HPC), higher = longer survival) was 99 % of control, the T/C (endpoint: median survival time, dose: 100.0 mg/kg/injection, schedule: Q01DX009 (ip), vehicle: Klucel (hydroxypropylcellulose) (HPC), higher = longer survival) was 109 % of control and the T/C (endpoint: median survival time, dose: 200.0 mg/kg/injection, schedule: Q01DX009 (ip), vehicle: Klucel (hydroxypropylcellulose) (HPC), higher = longer survival) was 109 % of control.
In the case of `CCOC(=O)C(C)(C)Br`, the T/C (endpoint: mean tumor weight, dose: 75.0 mg/kg/injection, schedule: Q01DX011 (ip), vehicle: other, higher = larger tumour) is reported as 90 % of control, the T/C (endpoint: mean tumor weight, dose: 150.0 mg/kg/injection, schedule: Q01DX011 (ip), vehicle: other, higher = larger tumour) is reported as 114 % of control and the T/C (endpoint: mean tumor weight, dose: 300.0 mg/kg/injection, schedule: Q01DX011 (ip), vehicle: other, higher = larger tumour) is reported as 98 % of control. For the same molecule, the T/C (endpoint: mean tumor weight, dose: 500.0 mg/kg/injection, schedule: Q01DX011 (ip), vehicle: other, higher = larger tumour) was 68 % of control, the T/C (endpoint: mean tumor weight, dose: 600.0 mg/kg/injection, schedule: Q01DX011 (ip), vehicle: other, higher = larger tumour) was 102 % of control and the T/C (endpoint: mean tumor weight, dose: 750.0 mg/kg/injection, schedule: Q01DX011 (ip), vehicle: other, higher = larger tumour) was 37 % of control.
